Records with an inconclusive call do not appear.
Test system: M. tuberculosis H37Rv growth inhibition, 7H9 media
Test: M. tuberculosis growth inhibition, HTS (AID 449762);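 also: bacterial growth assessed after seven days of incubation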
Settings: for IC90: measured here: IC90 growth inhibition

Row | SMILES | IC50 [µM] | IC90 [µM]
1 | CC(C)(C)c1ccc(OCCC(=O)OCC(=O)NC(=O)NC2CCCC2)cc1 | 5.45 | 8.58
2 | CC(C)(C)NC(=O)C(=O)NNC(=O)c1ccc(C(C)(C)C)cc1 | 5.71 | 17.6
3 | C=CCOc1ccccc1CN(C(=O)CCl)c1ccc2c(c1)OCO2 | 0.92 | 2.58
4 | NC1=NC[C@H](Cc2ccc(O)cc2)N1CCc1cccc2ccccc12 | 21.6 | 24.1
5 | c1cc2c3c(cccc3c1)NC1(CCC3(CC1)Nc1cccc4cccc(c14)N3)N2 | 65.5 | > 100
6 | c1ccc2c(c1)ncn2CCCCOc1ccc2c(c1)CCC2 | 22.8 | 25.7
7 | CC(=O)n1cc(/C=C2/N=C(c3ccccc3)OC2=O)c2ccccc21 | 30.7 | 75.5
8 | O=C([O-])c1ccccc1-[n+]1c(-c2ccccc2)cc(-c2ccccc2)cc1-c1ccccc1 | 15.3 | 20.5
9 | Cc1nc2sccn2c(=O)c1CCN1CCC(=C(c2ccccc2)c2ccc(F)cc2)CC1 | 44.7 | 49.9
10 | Oc1ccc(Nc2nc(-c3ccc4ccccc4c3)cs2)cc1 | 42.9 | > 100
11 | COc1cc2c(cc1NC(=O)CN1C(=O)NC3(CCc4ccccc43)C1=O)oc1ccccc12 (centres undefined) | 29.5 | > 100
12 | CCOc1ccc(NC(=O)CCc2nnc3ccc(N4CCC(C)CC4)nn23)cc1 | 8.75 | 15.3
13 | CN(C(=O)COC(=O)/C=C/c1ccc(Cl)c(Cl)c1)c1c(N)n(Cc2ccccc2)c(=O)[nH]c1=O | – | > 100
14 | CCOC(=O)C(C)Sc1nc(-c2cccs2)ccc1C#N (centres undefined) | 37.6 | 50.8
15 | Cn1nc([N+](=O)[O-])nc1Sc1ccc(C(C)(C)C)cc1 | 6.13 | 7.62
16 | COc1cccc(COC(=O)c2ccc3c(=O)n4c(nc3c2)CCC4)c1OC | 21.1 | 50.6
17 | Cc1nn(Cc2ccccc2)c(C)c1C(=O)OCC(=O)c1cc(C)n(CC(F)(F)F)c1C | 11.8 | 35.4
18 | COc1ccc2cc1Oc1ccc(cc1)C[C@H]1c3c(cc(OC)c4c3Oc3c(ccc5c3[C@H](C2)N(C)CC5)O4)CCN1C | 4.9 | 6.44
19 | O=C(CCc1ccc(Oc2cc([N+](=O)[O-])cc([N+](=O)[O-])c2)cc1)N1CCCCCC1 | 4.2 | 27
20 | Cc1ccc(C(C(=O)NCC2CCCO2)N(Cc2ccccc2)C(=O)c2ccc(-c3ccccc3)[nH]2)o1 (centres undefined) | 23.3 | 35.6
21 | CCC(C)NC(=O)c1c(N)n(/N=C/c2ccccn2)c2nc3ccccc3nc12 (centres undefined) | 9.73 | 14.3
22 | C/C(=N\NC(=O)COc1ccc(C)cc1Br)c1cc([N+](=O)[O-])cs1 | 4.07 | 34.1

Row | SMILES | IC50 [µM] | IC90 [µM]
23 | CCOC(=O)CSc1nc(C)c(C(=O)OCC)s1 | 3.62 | 9.29
24 | COC1=CC(=O)c2ccccc2C1=O | 16 | 21.9
25 | Cc1ccc2[nH]c3c(N4CCN(Cc5ccccc5)CC4)ncnc3c2c1 | 22.3 | 42.6
26 | Nc1c(N(CCC2=CCCCC2)C(=O)c2ccc([N+](=O)[O-])o2)c(=O)[nH]c(=O)n1Cc1ccccc1 | 16.6 | 30.2
27 | Cc1ccc(NC(=O)COc2ccccc2CNC(C)(C)CC(C)(C)C)cc1 | 22.6 | 29.8
28 | Cc1cccc(CNc2ncnc3ccc(-c4ccc5c(c4)OCCO5)cc23)c1 | 5.93 | 6.77
29 | CCOc1cc(/C=C\[N+](=O)[O-])ccc1OCC(=O)Nc1ccccc1C | 6.93 | 33.8
30 | O=C(Cn1ncc(Cl)c(Cl)c1=O)c1ccc2c(c1)OCCO2 | 6.83 | 12.2
31 | C(=C\c1ccccc1)/C=N/Nc1nc2ccccc2s1 | – | > 100
32 | C=C(C)CSc1cc(C)c(C#N)c2nc3ccccc3n12 | 34.3 | 48.1
33 | S=C(Nc1ccc(Cl)cc1)NC1CC2CCC(C1)N2Cc1ccccc1 (centres undefined) | 10.9 | 14.8
34 | Cc1ccc(-c2csc(N3CCN(CCCn4c(-c5ccncc5)nc5ccccc54)CC3)n2)cc1 | 23.4 | 26.5
35 | CS(=O)(=O)c1ncc(Cl)c(C(=O)Nc2ccc(OC(F)F)cc2)n1 | 5.68 | 15.5
36 | CCCCN(C)S(=O)(=O)c1ccc(C(=O)Nc2nnc(-c3ccco3)o2)cc1 | 8.02 | 21.2
37 | CCn1cc(Br)c(C(=O)Nc2ccc(C(=O)OC(C)C)cc2)n1 | 35.5 | 57.8
38 | Cc1oc(-c2cccc(Cl)c2)nc1CN1CCC(C(=O)N2CCN(c3ccccc3F)CC2)CC1 | 20.8 | 26.3
39 | NC1=NC2(CCC(c3ccccc3)CC2)n2c(nc3ccccc32)N1 (centres undefined) | 28.6 | 38.3
40 | COc1ccc(C(=O)C2CCCN(C3CSCCSC3)C2)c(C)c1 (centres undefined) | 23.1 | 26.4
41 | O=c1oc(-c2cccs2)nc2c1cnn2-c1ccccc1 | 64.5 | > 100
42 | CCC1(c2ccccc2)ON(c2c(Br)cccc2Br)C1=O (centres undefined) | 16.9 | 50.4
43 | CC(C)n1cnc2c(NCc3ccccc3)cc(Cc3ccc(F)cc3)cc21 | 26.9 | 36.5

From PubChem BioAssay AID449762 (Southern Research Specialized Biocontainment Screening …, 2010)
